Assay results: ChEMBL document CHEMBL2380296, “Structure-based design and optimization of 2-aminothiazole-4-carboxamide as a new class of CHK1 inhibitors” (Bioorg Med Chem Lett, 2013)

Legend:
[1] = molecular target: 5-hydroxytryptamine receptor 1A (Homo sapiens) (UniProt P08908); test: Inhibition of 5HT-1A receptor (unknown origin) at 2 ug/mL relative to control
[2] = molecular target: Muscarinic acetylcholine receptor M2 (Homo sapiens) (UniProt P08172); test: Inhibition of muscarinic M2 receptor (unknown origin) at 2 ug/mL relative to control
Muscarinic acetylcholine receptor M2 (Homo sapiens), sequence (P08172 whole entry): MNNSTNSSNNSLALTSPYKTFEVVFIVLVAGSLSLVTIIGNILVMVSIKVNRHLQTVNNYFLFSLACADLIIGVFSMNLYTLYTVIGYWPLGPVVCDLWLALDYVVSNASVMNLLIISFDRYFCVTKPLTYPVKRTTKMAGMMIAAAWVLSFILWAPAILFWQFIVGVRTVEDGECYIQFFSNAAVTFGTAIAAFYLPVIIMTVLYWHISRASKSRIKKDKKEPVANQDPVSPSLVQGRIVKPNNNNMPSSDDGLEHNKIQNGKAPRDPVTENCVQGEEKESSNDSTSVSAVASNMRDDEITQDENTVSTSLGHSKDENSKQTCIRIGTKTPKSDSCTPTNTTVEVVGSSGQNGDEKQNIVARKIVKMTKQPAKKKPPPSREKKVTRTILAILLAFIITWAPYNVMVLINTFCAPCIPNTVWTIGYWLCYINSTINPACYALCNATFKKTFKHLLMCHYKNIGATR

[3] = molecular target: Mitogen-activated protein kinase 1 (Homo sapiens, UniProt P28482); test: Inhibition of human ERK2
Mitogen-activated protein kinase 1, sequence (P28482 whole entry): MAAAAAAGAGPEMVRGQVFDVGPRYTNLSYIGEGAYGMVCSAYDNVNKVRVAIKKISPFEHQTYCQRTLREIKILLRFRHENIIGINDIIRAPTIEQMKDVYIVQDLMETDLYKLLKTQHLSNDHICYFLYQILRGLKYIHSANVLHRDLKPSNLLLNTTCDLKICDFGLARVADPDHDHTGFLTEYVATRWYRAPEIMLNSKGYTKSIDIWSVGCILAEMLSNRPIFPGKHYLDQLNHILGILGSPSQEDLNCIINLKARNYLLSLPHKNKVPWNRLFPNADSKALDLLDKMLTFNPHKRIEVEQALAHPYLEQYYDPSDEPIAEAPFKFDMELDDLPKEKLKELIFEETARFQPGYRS

[4] = molecular target: Cannabinoid receptor 1 (Homo sapiens) (UniProt P21554); test: Inhibition of CB1 receptor (unknown origin) at 20 ug/mL relative to control
[5] = Plasma concentration in rat at 10 mg/kg, po measured at 4 hrs; format: ADME, organism-based; design: dose 10 mg/kg, route oral
Cytochrome P450 2D6 [6] = molecular target: T1, Cytochrome P450 2D6 (Homo sapiens, UniProt P10635); test: Time-dependent inhibition of CYP2D6 in human liver microsomes using dextromethorphan as substrate incubated for 30 mins prior to substrate addition measured after 30 mins by LC-MS/MS analysis; format: ADME, Microsome
T1 sequence (P10635 whole entry): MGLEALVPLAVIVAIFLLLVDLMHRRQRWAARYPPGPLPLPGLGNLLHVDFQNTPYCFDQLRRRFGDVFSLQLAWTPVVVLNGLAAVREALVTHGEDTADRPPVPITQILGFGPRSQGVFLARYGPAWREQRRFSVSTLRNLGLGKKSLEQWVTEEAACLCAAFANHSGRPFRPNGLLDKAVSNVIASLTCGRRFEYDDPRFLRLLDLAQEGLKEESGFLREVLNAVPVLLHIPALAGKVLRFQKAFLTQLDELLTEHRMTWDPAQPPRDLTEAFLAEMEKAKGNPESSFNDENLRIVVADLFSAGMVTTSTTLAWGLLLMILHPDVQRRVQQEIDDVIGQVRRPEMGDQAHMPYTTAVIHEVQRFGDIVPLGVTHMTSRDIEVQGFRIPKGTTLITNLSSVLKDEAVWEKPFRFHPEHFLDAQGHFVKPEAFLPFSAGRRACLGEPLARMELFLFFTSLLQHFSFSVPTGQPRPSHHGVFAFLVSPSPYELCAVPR

[7] = molecular target: Alpha-1A adrenergic receptor (Homo sapiens) (UniProt P35348); test: Inhibition of adrenergic alpha-1A receptor (unknown origin) at 1 ug/mL relative to control
Alpha-1A adrenergic receptor (Homo sapiens), sequence (P35348 whole entry): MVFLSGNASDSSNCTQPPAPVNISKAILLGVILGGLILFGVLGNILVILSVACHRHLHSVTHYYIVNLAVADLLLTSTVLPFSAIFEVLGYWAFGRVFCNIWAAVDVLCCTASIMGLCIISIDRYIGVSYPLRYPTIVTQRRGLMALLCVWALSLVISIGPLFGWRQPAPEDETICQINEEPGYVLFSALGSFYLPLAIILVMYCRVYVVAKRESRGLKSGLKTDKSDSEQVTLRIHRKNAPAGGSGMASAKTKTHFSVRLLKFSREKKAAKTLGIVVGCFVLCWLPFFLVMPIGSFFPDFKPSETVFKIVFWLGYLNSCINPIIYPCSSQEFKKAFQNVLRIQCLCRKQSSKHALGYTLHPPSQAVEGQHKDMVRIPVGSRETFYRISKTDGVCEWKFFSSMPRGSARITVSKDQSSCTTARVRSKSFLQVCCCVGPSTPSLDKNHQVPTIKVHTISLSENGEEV

[8] = molecular target: Alpha-2B adrenergic receptor (Homo sapiens) (UniProt P18089); test: Inhibition of adrenergic alpha-2B receptor (unknown origin) at 1 ug/mL relative to control
Alpha-2B adrenergic receptor (Homo sapiens), sequence (P18089 whole entry): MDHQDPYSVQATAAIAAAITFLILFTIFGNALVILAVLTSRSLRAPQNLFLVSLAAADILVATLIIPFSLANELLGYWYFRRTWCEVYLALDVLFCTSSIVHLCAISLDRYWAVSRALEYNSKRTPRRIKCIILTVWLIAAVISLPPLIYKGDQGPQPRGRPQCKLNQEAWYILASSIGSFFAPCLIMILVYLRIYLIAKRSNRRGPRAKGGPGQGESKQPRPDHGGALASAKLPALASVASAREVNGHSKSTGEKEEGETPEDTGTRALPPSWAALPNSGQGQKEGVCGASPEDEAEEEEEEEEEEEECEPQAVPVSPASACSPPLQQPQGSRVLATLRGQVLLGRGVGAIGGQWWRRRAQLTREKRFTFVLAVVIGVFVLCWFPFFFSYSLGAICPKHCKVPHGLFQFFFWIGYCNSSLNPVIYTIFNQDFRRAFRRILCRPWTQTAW

[9] = Plasma concentration in rat at 10 mg/kg, po measured at 24 hrs; format: ADME, organism-based; design: dose 10 mg/kg, route oral
Cytochrome P450 2C9 = Cytochrome P450 2C9 (Homo sapiens, UniProt P11712); test: Inhibition of CYP2C9 in human liver microsomes using tolbutamide as substrate by LC-MS/MS analysis; format: ADME, Microsome
Cytochrome P450 2C9, sequence (P11712 whole entry): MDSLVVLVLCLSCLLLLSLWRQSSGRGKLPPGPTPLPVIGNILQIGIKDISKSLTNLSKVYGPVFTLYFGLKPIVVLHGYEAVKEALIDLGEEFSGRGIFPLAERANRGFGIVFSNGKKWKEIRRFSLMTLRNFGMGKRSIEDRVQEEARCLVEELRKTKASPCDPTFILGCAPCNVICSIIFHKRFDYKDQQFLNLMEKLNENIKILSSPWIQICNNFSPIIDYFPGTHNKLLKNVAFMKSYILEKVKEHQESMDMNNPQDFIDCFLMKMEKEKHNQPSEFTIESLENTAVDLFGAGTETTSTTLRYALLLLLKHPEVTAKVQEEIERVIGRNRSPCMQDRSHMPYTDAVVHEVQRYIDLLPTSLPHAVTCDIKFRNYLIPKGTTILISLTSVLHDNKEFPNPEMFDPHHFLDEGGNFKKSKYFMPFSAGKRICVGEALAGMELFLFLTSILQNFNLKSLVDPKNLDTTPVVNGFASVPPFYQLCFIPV

[10] = molecular target: Insulin-like growth factor 1 receptor (Homo sapiens, UniProt P08069); test: Inhibition of human IGF1R
hERG (KCNH2) = hERG (KCNH2) (Homo sapiens, UniProt Q12809); test: Inhibition of human ERG transfected in CHO cells at 1.5 ug/mL by rubidium efflux assay relative to control; format: cell-based; conditions: CHO cells transfected with human ERG
Cytochrome P450 2D6 [11] = molecular target: T1, Cytochrome P450 2D6; test: Inhibition of CYP2D6 in human liver microsomes using dextromethorphan as substrate by LC-MS/MS analysis; format: ADME, Microsome
[12] = molecular target: Alpha-2C adrenergic receptor (Homo sapiens) (UniProt P18825); test: Inhibition of adrenergic alpha-2C receptor (unknown origin) at 1 ug/mL relative to control
Alpha-2C adrenergic receptor (Homo sapiens), sequence (P18825 whole entry): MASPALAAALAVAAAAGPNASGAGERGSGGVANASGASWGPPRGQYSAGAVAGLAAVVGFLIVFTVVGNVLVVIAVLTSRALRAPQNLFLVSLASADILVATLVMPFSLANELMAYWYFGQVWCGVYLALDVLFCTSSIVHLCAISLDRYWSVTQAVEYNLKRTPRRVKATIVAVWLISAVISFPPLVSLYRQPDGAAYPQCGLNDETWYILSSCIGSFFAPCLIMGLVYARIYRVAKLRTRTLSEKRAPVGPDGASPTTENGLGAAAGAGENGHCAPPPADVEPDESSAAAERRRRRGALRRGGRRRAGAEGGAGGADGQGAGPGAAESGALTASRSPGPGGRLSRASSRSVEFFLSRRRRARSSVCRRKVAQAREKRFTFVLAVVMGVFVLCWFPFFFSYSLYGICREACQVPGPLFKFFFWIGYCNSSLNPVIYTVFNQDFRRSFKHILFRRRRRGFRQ

[13] = molecular target: Muscarinic acetylcholine receptor M5 (Homo sapiens) (UniProt P08912); test: Inhibition of muscarinic M5 receptor (unknown origin) at 2 ug/mL relative to control
Muscarinic acetylcholine receptor M5 (Homo sapiens), sequence (P08912 whole entry): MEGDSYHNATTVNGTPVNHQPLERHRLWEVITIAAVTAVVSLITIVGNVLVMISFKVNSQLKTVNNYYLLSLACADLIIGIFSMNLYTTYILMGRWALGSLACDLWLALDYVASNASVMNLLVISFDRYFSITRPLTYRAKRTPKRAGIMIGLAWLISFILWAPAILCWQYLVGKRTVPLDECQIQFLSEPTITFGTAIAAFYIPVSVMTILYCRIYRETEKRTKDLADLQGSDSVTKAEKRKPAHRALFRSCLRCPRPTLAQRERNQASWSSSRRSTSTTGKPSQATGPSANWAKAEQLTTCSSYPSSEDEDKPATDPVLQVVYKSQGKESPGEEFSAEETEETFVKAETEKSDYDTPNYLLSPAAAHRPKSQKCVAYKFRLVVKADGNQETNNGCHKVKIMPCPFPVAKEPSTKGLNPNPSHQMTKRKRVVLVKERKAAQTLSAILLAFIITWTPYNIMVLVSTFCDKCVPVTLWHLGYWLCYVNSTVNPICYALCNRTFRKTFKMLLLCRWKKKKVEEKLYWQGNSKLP

[14] = molecular target: Testis-specific serine/threonine-protein kinase 2 (Homo sapiens, UniProt Q96PF2); test: Inhibition of human TSSK2
Testis-specific serine/threonine-protein kinase 2, sequence (Q96PF2 whole entry): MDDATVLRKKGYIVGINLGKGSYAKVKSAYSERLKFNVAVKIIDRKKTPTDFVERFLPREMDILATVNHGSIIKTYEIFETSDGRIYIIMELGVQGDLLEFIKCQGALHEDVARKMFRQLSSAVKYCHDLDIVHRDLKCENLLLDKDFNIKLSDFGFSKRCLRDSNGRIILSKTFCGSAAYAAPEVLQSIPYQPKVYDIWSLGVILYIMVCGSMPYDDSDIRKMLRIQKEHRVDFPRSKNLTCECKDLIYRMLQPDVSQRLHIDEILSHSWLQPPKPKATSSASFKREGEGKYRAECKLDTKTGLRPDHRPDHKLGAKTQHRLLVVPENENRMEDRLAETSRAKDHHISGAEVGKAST

5-hydroxytryptamine receptor 1A (Homo sapiens), sequence (P08908 whole entry): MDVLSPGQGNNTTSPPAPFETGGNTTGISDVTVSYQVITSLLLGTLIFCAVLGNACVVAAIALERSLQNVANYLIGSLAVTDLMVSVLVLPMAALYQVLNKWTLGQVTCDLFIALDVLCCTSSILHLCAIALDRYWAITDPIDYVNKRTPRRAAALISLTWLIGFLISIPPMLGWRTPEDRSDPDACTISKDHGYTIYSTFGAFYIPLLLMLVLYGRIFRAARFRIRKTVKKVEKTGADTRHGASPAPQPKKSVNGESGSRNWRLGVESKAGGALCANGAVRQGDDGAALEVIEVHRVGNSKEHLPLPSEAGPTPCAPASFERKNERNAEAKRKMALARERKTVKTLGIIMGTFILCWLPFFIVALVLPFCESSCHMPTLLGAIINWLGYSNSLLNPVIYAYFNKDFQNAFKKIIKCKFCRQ

inhibition [1]: 12.8%
inhibition [2]: 3.5%
IC50 [3]: 20 µM
inhibition [4]: 22.6%
concentration at 4 h [5]: 183 ng/mL
IC50 (Cytochrome P450 2D6 [6]): > 30 µM
inhibition [7]: 23.7%
inhibition [8]: 4.2%
concentration at 24 h [9]: 6.29 ng/mL
IC50 (Cytochrome P450 2C9): > 30 µM
IC50 [10]: 30 µM
IC50 (Cytochrome P450 2D6 [11]): > 30 µM
inhibition [12]: 13.8%
inhibition [13]: 14.4%
IC50 [14]: 8.9 µM
SMILES: COc1ccc2c(c1)C(=O)N(c1nc(C(=O)Nc3cnccc3N3CCNCC3)cs1)C2
inhibition at 1.5 ug/mL (hERG (KCNH2)): 24%
